Measured values reported in patent publication US20140186329A1, “POLYPHENOL ANALOGS TO TREAT ISCHEMIA” (priority 2011, published 2014).

How the values were obtained:
[1] = system: HT22 cells; assay: In vitro ischemia assay (HT22 cell IAA assay, MTT); type: cell-based, mouse; conditions: 20 μM IAA for 2 hr, viability after 24 hr by MTT; for EC50: Mus musculus, HT-22, HT22 cells, read-out: EC50 in vitro ischemia; for EC50 in vitro ischemia (μM): HT22 cells
Description: Cell viability was determined by a modified version of 3-(4,5-dimethylthiazol-2-yl)-2,5-diphenyl tetrazolium bromide (MTT) assay based on the standard procedure (Maher, et al., Brain Research. (2007), supra). Cells were seeded onto 96-well microtiter plates at a density of 5×10^3 cells per well. For the in vitro ischemia assay, the next day, the medium was replaced with DMEM supplemented with 7.5% DFCS and the cells were treated with 20 μM iodoacetic acid (IAA) alone or in the presence of the different derivatives. After 2 hr the medium in each well was aspirated and replaced with fresh medium without IAA but containing the derivatives. 20 hr later, the medium in each well was aspirated and replaced with fresh medium containing 2.5 μg/ml MTT. After 4 hr of incubation at 37° C., the cells were solubilized with 100 μl of a solution containing 50% dimethylformamide and 20% SDS (pH 4.7). The absorbance at 570 nm was measured on the following day with a microplate reader (Molecular Devices). Results were confirmed by visual inspection of the wells. Controls included compound alone to test for toxicity and compound with no cells to test for interference with the assay chemistry.
For a primary screen, an in vitro ischemia model in combination with the HT22 nerve cell line (Maher, et al., Brain Research. (2007) 1173, 117-125) was chosen. […] To induce ischemia in the HT22 cells we used iodoacetic acid (IAA), a well-known, irreversible inhibitor of the glycolytic enzyme glyceraldehyde 3-phosphate dehydrogenase (G3PDH) (Winkler, et al., Exp. Eye Res. (2003) 76, 715-723). IAA has been used in a number of other studies to induce ischemia in nerve cells (Reshef, et al., Neurosci. Lett. (1997) 238, 37-40; Sperling, et al., Neursci. Lett. (2003) 351, 137-140; Rego, et al., Neurochem. Res. (1999) 24, 351-358; Sigalov, et al., J. Mol. Neurosci. (2000) 15, 147-154; and Reiner, et al., Neurosci. Lett. (1990) 119, 175-178), including several recent screens for neuroprotective molecules (Biraboneye, et al., J. Med. Chem. (2009) 52 (14), 4358-4369; Biraboneye, et al., Chem. Med. Chem. (2010) 5 (1), 79-85). The changes following IAA treatment of neural cells are very similar to those seen in animal models of ischemic stroke (Lipton, et al., Physiol. Rev. (1999) 79, 1431-1568) and include alterations in membrane potential (Reiner, et al., Neurosci. Lett. (1990) 119, 175-178), breakdown of phospholipids (Taylor, et al., J. Pharmacol. Exp. Ther. (1996) 276, 1224-1231), loss of ATP (Winkler, et al., Exp. Eye Res. (2003) 76, 715-723; Sperling, et al., Neursci. Lett. (2003) 351, 137-140) and an increase in reactive oxygen species (ROS) (Taylor, et al., J. Pharmacol. Exp. Ther. (1996), supra; and Sperling, et al., Neursci. Lett. (2003) 351, 137-140).
(§1) Cell viability was determined after 24 hr by the MTT assay. The ability to maintain GSH (GSH) was determined by treating HT22 cells with different doses of each derivative (1-10 μM) in the presence of 5 mM glutamate. After 24 hr cell extracts were prepared and analyzed for total GSH. Fisetin (10 μM) was used as a positive control. The ability to induce PC12 cell differentiation (PC 12 diff' n) was determined by treating PC12 cells in N2 medium with different doses of each derivative (1-10 μM) for 24 hr. Differentiation was assessed by visual inspection with Fisetin (10 μM) as a positive control. Anti-inflammatory activity (microglia) was assessed in N9 microglial cells treated with bacterial lipopolysaccharide alone or in the presence different doses of each derivative (1-10 μM) for 24 hr. Fisetin was used as a positive control. TEAC values, a measure of direct antioxidant activity, were determined using the ABTS decolorization assay.
For rapid screening of chemical libraries, a mouse HT22 hippocampal cell death assay induced by addition of the compound iodoacetic acid (IAA) was used. IAA is a well-known, irreversible inhibitor of the glycolytic enzyme glyceraldehyde 3-phosphate dehydrogenase (G3PDH). […]

[2] = system: HT22 cells; assay: Maintenance of total GSH in the presence of glutamate; type: cell-based, mouse; conditions: derivative 1-10 μM, 5 mM glutamate, 24 hr
Description: Total intracellular glutathione was determined by a chemical assay as described (Maher, P. et al., Free Radical Research. (2006) 40 (10), 1105-1111).
(§2) Three secondary screens allowed assessment of three key activities of Fisetin that are highly relevant to stroke, as well as other neurological disorders: maintenance of glutathione (GSH), the major endogenous cellular antioxidant, inhibition of LPS-induced microglial activation, an indicator of anti-inflammatory activity and PC 12 cell differentiation, a measure of neurotrophic activity. All of these activities are relevant to the nerve cell loss seen in stroke (Gelderblom, et al., Stroke. 2009, 40 (5), 1849-1857; Pandya, et al., Cent. Nerv. Syst. Agents. Med. Chem. (2011) April 27; Lewerenz, et al., J. Neurochem. (2010) 113 (2), 502-504). […] To assess GSH maintenance, total intracellular GSH levels after a 24 hr treatment with the compound both in the absence and presence of glutamate, an inducer of GSH loss and oxidative stress (Tan, et al., Curr. Top. Med. Chem. (2001) 1, 497-506; Maher, et al., Free Radical Research. (2006) 40 (10), 1105-1111) was measured. Inhibition of LPS-induced microglial activation was determined by treating N9 mouse microglial cells with LPS alone and in the presence of the compounds and assaying NO release into the medium 24 hr later (Zheng, et al., Int. Immunopharmacol. (2008) 8, (3), 484-494). PC12 cell differentiation was determined by treating PC12 cells with the compounds and looking at neurite outgrowth after 24 hr. In all cases, Fisetin was used as a positive control (Sagara, et al., J. Neurochem. (2004) 90, 1144-1155).
as §1

[3] = system: PC12 cells; assay: PC12 cell differentiation (neurite outgrowth); type: cell-based; conditions: N2 medium, derivative 1-10 μM, 24 hr, visual inspection
Description: PC 12 cells in N2 medium were treated with the derivatives (1-10 μM) or Fisetin (10 μM) as a positive control for 24 hr at which time the cells were scored for the presence of neurites. PC12 cells produce neurites much more rapidly when treated in N2 medium than when treated in regular growth medium. For each treatment, 100 cells in each of three separate fields were counted. Cells were scored positive if one or more neurites>1 cell body diameter in length were observed.
as §2, §1

[4] = TEAC, ABTS decolorization assay; conditions: relative to Trolox
Description: TEAC values for the flavonoids were determined as described (Maher, P. et al., Free Radical Research. (2006), supra). Briefly, 250 μl of 2,2′-azinobis(3-ethylbenzothiazoline 6-sulfonate) (ABTS) treated overnight with potassium persulfate and diluted to an OD of ˜0.7 at 734 nm was added to 2.5 μl of a derivative solution in ethanol. The change in absorbance due to the reduction of the ABTS radical cation was measured at 734 nm for 4 min. To calculate the TEAC, the gradient of the plot of the percentage inhibition of absorbance vs. concentration for the derivative in question was divided by the gradient of the plot for Trolox.
as §1

Structure (SMILES)	EC50 [1]	GSH (ability to maintain GSH) [2]	PC12 diff'n (ability to induce PC12 cell differentiation) [3]	TEAC [4]	EC50 in vitro ischemia (μM) [1]
O=c1cc(-c2ccc(N3CCCC3)cc2)oc2c1ccc1ccccc12 [CMS-115, 2-(4-(pyrrolidin-1-yl)phenyl)-4H-benzo[h]chromen-4-one]	0.2 µM	no	no	0.03	–
Cc1cc(O)c(C(=O)/C=C/c2ccc(O)cc2O)cc1C [CMS-087, (E)-3-(2,4-dihydroxyphenyl)-1-(2-hydroxy-4,5-dimethylphenyl)prop-2-en-1-one]	0.05 µM	no	yes	0.93	–
CC(C)Oc1cc(-c2ccc(N3CCCC3)cc2)nc2ccccc12 [CMS-113, 4-isopropoxy-2-(4-(pyrrolidin-1-yl)phenyl)quinoline]	0.5 µM	no	no	0.27	–
COc1ccc(-c2cc(OC)c3ccccc3n2)cc1O [CMS-001, 4-methoxy-2-(3-hydroxy, 4-methoxyphenyl) quinoline]	–	no	no	0.24	no
Cc1cc2oc(-c3ccc(O)cc3O)c(O)c(=O)c2cc1C [CMS-093, 2-(2,4-dihydroxyphenyl)-3-hydroxy-6,7-dimethyl-4H-chromen-4-one]	> 0.5 µM	no	no	1.56	–
COc1cc(/C=C/C(=O)c2ccc3ccccc3c2O)ccc1OCc1ccccc1 [CMS-063, (E)-3-(4-(benzyloxy)-3-methoxyphenyl)-1-(1-hydroxynaphthalen-2-yl)prop-2-en-1-one]	0.5 µM	no	no	0.15	–
O=c1c(O)c(-c2ccc(O)c(O)c2)oc2ccc3ccccc3c12 [CMS-041, 3-(3,4-dihydroxyphenyl)-2-hydroxy-1H-benzo[h]chromen-1-one]	0.25 µM	no	yes	1.26	–
COc1cc(-c2ccccc2)nc2ccccc12 [CMS-021, 4-methoxy-2-phenylquinoline]	0.75 µM	no	no	0.12	–
COc1cc(-c2ccc(O)cc2O)nc2ccccc12 [CMS-083, 4-methoxy-2-(2,4-dihydroxyphenyl) quinoline]	> 0.5 µM	no	no	0.05	–
Cc1cc2oc(-c3ccc(N4CCCC4)cc3)cc(=O)c2cc1C [CMS-116, 6,7-dimethyl-2-(4-(pyrrolidin-1-yl)phenyl)-4H-chromen-4-one]	> 0.5 µM	no	no	0.12	–
COc1cc(-c2ccc(O)cc2)nc2ccccc12 [CMS-022, 4-methoxy-2-(4-hydroxyphenyl)quinoline]	–	no	no	0.81	no
CN(C)c1ccc(-c2cc(=O)c3ccc4ccccc4c3o2)cc1 [CMS-120, 2-(4-(dimethylamino)phenyl)-4H-benzo[h]chromen-4-one]	0.25 µM	no	no	0.24	–
CCOc1ccc(-c2cc(=O)c3cc(C)c(C)cc3o2)cc1OCC [CMS-018, 2-(3,4-diethoxyphenyl)-6,7-dimethyl-4H-chromen-4-one]	–	no	no	0.15	no
CCOc1ccc(-c2cc(=O)c3ccc4ccccc4c3o2)cc1OCC [CMS-038, 2-(3,4-diethoxyphenyl)-4H-benzo[h]chromen-4-one]	–	no	no	0.2	no
